In publication PMC10618445, “Eucalyptus torquata L. flowers: a comprehensive study reporting their metabolites profiling and anti-gouty arthritis potential” (Scientific Reports, 2023):

Columns and labels:
[1] = ABTS radical scavenging assay; settings: mean ± SD, triplicate
Experimental: DPPH radical scavenging, ABTS radical scavenging and FRAP assays were done according to Dudonne et al.[19] method minor modifications. The details are mentioned in the supplementary file. Briefly, 200 µL of the reaction mixture containing 10 µL extract/ standard at different concentrations (0.1575 - 1 mg/mL) was added to 2,2′-Azino-bis(3-ethylbenzothiazoline-6-sulfonic acid (ABTS) solution (190 µL) then measured at 734 nm in 96 well-plates. The ABTS solution was composed as follows; 5 mL of 14 mM ABTS dissolved in methanol added to 5 mL solution of 4.9 mM potassium persulfate, and subsequently stored for 16 h at room temperature in dark. This solution was diluted with methanol till the absorbance was 0.700.

[2] = DPPH radical scavenging assay; settings: mean ± SD, triplicate
Experimental: DPPH radical scavenging, ABTS radical scavenging and FRAP assays were done according to Dudonne et al.[19] method minor modifications. The details are mentioned in the supplementary file. Briefly, 20 μL of the diluted concentrations of ETME/ standard (0.1575 - 1 mg/mL) were added to 200 μL of 2,2-diphenyl-1-picrylhydrazyl (DPPH) in a 96 well-plate and the absorbance was measured at 517 nm after incubation for 30 min [1] using ascorbic acid as standard. […] was determined using the equation; [(Ac – As) / Ac] × 100. In which, Ac was the control absorbance (DPPH solution without the tested sample) while As was the sample absorbance (DPPH solution in addition to the extract or standard).

[3] = Ferric reducing power assay (FRAP); settings: mean ± SD, triplicate
Experimental: DPPH radical scavenging, ABTS radical scavenging and FRAP assays were done according to Dudonne et al.[19] method minor modifications. The details are mentioned in the supplementary file. The ferric reducing power of the extract was determined using the method reported previously by Dudonne, et al., 2009 [1]. The reduction is monitored by measuring the change of absorbance at 593 nm. […] A standard curve was prepared using various concentrations of FeSO4 .7H2O. All solutions were used on the day of preparation. A 100 µL of the sample solution and 300 μL of deionized water were added to 3 mL of freshly prepared FRAP reagent. The reaction mixture was incubated in a water bath for 30 min at 37 °C. The difference between sample absorbance and blank absorbance was calculated and used to calculate the FRAP value. All measurements were done in triplicate and the EC50 was calculated. Ascorbic acid is used as standard.

[4] = test system: U937 human monocytes; test: Histamine release inhibitory activity (PMA-treated cells, ELISA); assay type: cell-based; settings: 20 nM PMA, 1 h, mean ± SD
Experimental: U937 human monocytes (ATCC, Manassas, VA, USA) were used to study the effect of the extract on histamine release. U937 cells (50,000 cells) were plated in a 96-well plate and treated with various concentration (1000–7.81 µg/mL) of the extract, in presence or absence of 20 nM phorbol myristate acetate (PMA) for 1 h. The cell culture supernatants collected from either untreated control or treated cultures were centrifuged at 10,000 g for 5 min at 4 °C and assessed for the released histamine by the commercially available ELISA kit. Diclofenac was used as the positive control.

[5] = test system: protease; test: Protease (proteinase) inhibitory activity; assay type: biochemical; settings: mean ± SD, triplicate
Experimental: (§1) Albumin denaturation inhibition was evaluated using the previously described method. Membrane stabilization and proteinase inhibitory potentials were evaluated using the previously reported method. Diclofenac was used as the reference drug. All the experiments were performed in triplicate.

[6] = test system: red blood cell membranes; test: Membrane stabilization; assay type: cell-based; settings: mean ± SD, triplicate
Experimental: as §1
Denaturation of tissue proteins is well documented in the pathogenesis of inflammatory events like arthritis. The protection against protein denaturation is one of NSAIDs mechanisms of action. In addition, red blood cell hemolysis inhibition may provide insights into the process of inflammation. Stabilization of the red blood cell membranes may delay or prevent the lysis and the consequent cytoplasmic contents release and the inflammatory response. So, plants that can interfere with these responses could be very useful for developing novel anti-arthritic drugs. Natural extracts from other Eucalyptus species produced similar albumin denaturation and cell membrane stabilization activities including E. obliqua leaves, E. sideroxylon bark[9] and E. globulus leaves.

[7] = test system: 5-lipoxygenase (5-LOX); test: 5-lipoxygenase inhibitory assay (lipoxygenase inhibitor screening kit); assay type: biochemical; settings: mean ± SD, triplicate
Excerpt: (§2) Methanol, DPPH (2,2-diphenyl-1-picrylhydrazyl), ABTS (2,2′-Azino-bis (3-ethylbenzothiazoline-6-sulfonic acid)), TPTZ (2,4,6-tri(2-pyridyl)-s-triazine), ascorbic acid, hyaluronic acid (human umbilical cord), sodium hydroxide, hyaluronidase (bovine testes), calcium chloride, p-dimethylaminobenzaldehyde (PDMAB), and sodium borate were purchased from Sigma-Aldrich (USA). COX (ovine) and LOX inhibitor screening assay kits (Cayman Chemical Company, MI, USA), 96-well cell culture plate (Corning Life Sciences, Lowell, MA, USA), PMA (Sigma-Aldrich, St. Luis, MO, USA), and histamine release assay kit (SPI-Bio, France) were used.
The COX inhibitory activity was assayed using Cayman colorimetric COX (ovine) inhibitor screening assay kit, according to the manufacturer’s instructions. The selectivity index (S.I.) was then calculated as IC50 (COX-1)/IC50 (COX-2). In vitro 5-lipoxygenase (5-LOX) inhibitory assay was carried out using lipoxygenase inhibitor screening assay kit, according to the manufacturer’s instructions. Diclofenac sodium was used as a reference drug.

[8] = test system: tyrosinase; test: Tyrosinase inhibition assay with L-DOPA as substrate; assay type: biochemical; settings: mean ± SD
Experimental: Tyrosinase inhibition assay was performed with L-DOPA as substrate adopting the previously described method. Detailed procedures are described in the supplementary file.
Tyrosinase inhibition assay was performed with L-DOPA as substrate adopting the method reported in [3]. In a 96-plate, 685 μL of phosphate buffer (0.05 M, pH 6.5), 15 μL of tyrosinase enzyme (2500 U /mL), 200 μL of ETME (7.81–1000 µg/mL) and 100 μL of 5 mM/L L-DOPA were added. The absorbance was immediately monitored at 492 nm. Kojic acid was used as the positive control. The assay was made in triplicate. The percentage inhibition was calculated as follows: % of inhibition = (Acontrol/Atested sample)/ Acontrol) x 100. Where, Acontrol is the absorbance without the addition of the inhibitor and Asample is the absorbance after adding the standard.

[9] = target: xanthine oxidase (XO) (Bos taurus, UniProt P80457); test: Xanthine oxidase (XO) inhibitory activity; assay type: biochemical; settings: mean ± SD, triplicate; read-out: Xanthine oxidase IC50/EC50 (converted)
xanthine oxidase (XO), sequence (P80457 whole entry): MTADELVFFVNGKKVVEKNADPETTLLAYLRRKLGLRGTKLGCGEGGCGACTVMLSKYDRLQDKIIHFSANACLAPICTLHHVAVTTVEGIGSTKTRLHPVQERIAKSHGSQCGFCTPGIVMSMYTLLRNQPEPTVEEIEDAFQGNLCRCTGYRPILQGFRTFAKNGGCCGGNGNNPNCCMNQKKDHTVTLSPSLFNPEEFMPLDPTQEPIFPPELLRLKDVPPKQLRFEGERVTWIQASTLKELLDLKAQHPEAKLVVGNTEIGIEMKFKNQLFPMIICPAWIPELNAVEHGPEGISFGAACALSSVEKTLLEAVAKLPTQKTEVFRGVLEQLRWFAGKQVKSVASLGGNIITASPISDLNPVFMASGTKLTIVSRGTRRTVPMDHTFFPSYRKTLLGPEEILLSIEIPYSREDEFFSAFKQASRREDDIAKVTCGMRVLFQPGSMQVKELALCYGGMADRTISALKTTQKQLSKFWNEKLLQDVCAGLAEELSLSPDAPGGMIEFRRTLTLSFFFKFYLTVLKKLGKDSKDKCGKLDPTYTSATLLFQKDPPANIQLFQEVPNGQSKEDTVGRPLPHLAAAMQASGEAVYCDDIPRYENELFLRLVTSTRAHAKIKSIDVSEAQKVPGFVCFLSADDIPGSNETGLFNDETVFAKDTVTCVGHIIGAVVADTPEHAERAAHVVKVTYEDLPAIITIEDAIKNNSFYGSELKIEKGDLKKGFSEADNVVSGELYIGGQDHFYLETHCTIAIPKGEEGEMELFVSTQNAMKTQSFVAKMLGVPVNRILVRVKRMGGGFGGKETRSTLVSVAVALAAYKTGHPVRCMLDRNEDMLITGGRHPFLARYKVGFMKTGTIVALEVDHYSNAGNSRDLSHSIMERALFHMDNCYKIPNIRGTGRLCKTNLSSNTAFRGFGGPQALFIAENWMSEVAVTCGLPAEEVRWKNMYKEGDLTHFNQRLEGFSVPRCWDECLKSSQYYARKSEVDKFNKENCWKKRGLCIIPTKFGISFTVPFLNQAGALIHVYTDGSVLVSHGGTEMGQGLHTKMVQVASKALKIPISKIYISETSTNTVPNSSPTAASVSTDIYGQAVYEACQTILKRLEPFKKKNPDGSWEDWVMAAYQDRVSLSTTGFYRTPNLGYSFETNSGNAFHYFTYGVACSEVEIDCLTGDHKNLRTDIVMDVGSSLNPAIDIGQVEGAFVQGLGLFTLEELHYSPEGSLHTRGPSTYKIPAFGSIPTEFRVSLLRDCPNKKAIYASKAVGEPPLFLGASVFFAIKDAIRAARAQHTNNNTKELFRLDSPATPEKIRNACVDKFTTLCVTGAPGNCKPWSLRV
Experimental: The XO inhibitory activity was assayed following the protocol reported in[22]. Detailed procedures are described in the supplementary file. The XO inhibitory activity was assayed following the protocol reported in [2]. Five hundred µL of different concentrations of ETME/ standard (10- 100 µg/mL) were added to the enzyme solution (1.3 mL of phosphate buffer at concentration of 65 mM and pH 7.4 containing 0.28 U/mL of XO). Then the mixture was incubated for 10 min at 30 ℃. Next, 1.4 mL of the substrate xanthine (0.6 mM) was added to the mixture. The absorbance was measured at every minute for 10 min at 295 nm. Allopurinol was used as the standard drug. The percentage inhibition of XO was calculated as: % inhibition = (1 – Absorbance of sample/ Absorbance of blank) x 100. The IC50 value was calculated from the calibration curve.

[10] = test system: hyaluronidase (bovine testes); test: Hyaluronidase inhibitory activity; assay type: biochemical; settings: mean ± SD, triplicate
Excerpt: as §2
Hyaluronidase inhibitory activity of ETME was evaluated spectrophotometrically as reported by Perera et al.[24] with minor modifications. Detailed procedures are described in the supplementary file.
Hyaluronidase inhibitory activity of ETME was evaluated spectrophotometrically as reported by Perera et al., 2018 with minor modifications. […]. The percentage of enzyme inhibition was calculated as follows:
% of inhibition = (Acontrol/Atested sample)/ Acontrol) x 100.
Where Acontrol is the absorbance without addition of the inhibitor and Asample is the absorbance after adding the extract/standard. The IC50 value, the concentration giving 50% inhibition of hyaluronidase activity, was determined by interpolation using the concentration-response curves. […]

O=C1O[C@H]([C@@H](O)CO)C(O)=C1O [Ascorbic acid, ascorbic acid]
ABTS IC50/EC50 [1]: 21.4 ± 1.6 µg/mL
DPPH IC50/EC50 [2]: 2.2 ± 1.6 µg/mL
FRAP IC50/EC50 [3]: 3.9 ± 1.9 µg/mL

O=C(O)Cc1ccccc1Nc1c(Cl)cccc1Cl [Diclofenac]
Histamine release IC50/EC50 [4]: 17.94 ± 1.4 µg/mL
Protease IC50/EC50 [5]: 25.14 ± 1.2 µg/mL
Membrane stabilization IC50/EC50 [6]: 17.02 ± 1.3 µg/mL

COc1ccc2c(c1)c(CC(=O)O)c(C)n2C(=O)c1ccc(Cl)cc1 [Indomethacin]
LOX IC50/EC50 [7]: 23.4 ± 0.83 µg/mL

O=c1cc(CO)occ1O [Kojic acid]
Tyrosinase IC50/EC50 [8]: 52.0 ± 0.98 µg/mL

O=c1[nH]c(=O)c2c[nH]nc2[nH]1 [Oxypurinol]
IC50 [9]: 96.6 µM

O=C([O-])CC([S-])C(=O)[O-].[Au+].[Na+].[Na+] (stereo not shown) [Sodium aurothiomalate]
Hyaluronidase IC50/EC50 [10]: 20.03 ± 0.96 µg/mL
